Test system: Arabidopsis etiolated seedlings
Experiment: Ethylene response of etiolated seedlings grown on AT plates versus AT plus ACC (root length inhibition)
Format: in vivo, Arabidopsis thaliana
Settings: 10 uM ACC, 5 days
Protocol: (§1) Phenotypes of 5-day-old etiolated seedlings grown on AT plates in the absence or presence of 10 uM ACC. Data are presented in tabular (A) and graph (B) forms. Ethylene response of 5-day-old etiolated seedlings of WS, Col and two independent quadruple mutant isolates was quantified. Root and hypocotyl lengths of seedlings grown on AT plates versus AT plus 10 uM ACC were measured. Each data point represents the average organ length of 50 or more seedlings plus/minus standard deviation. Fold inhibition was calculated as the ratio of the average organ length in air to that in ACC.
To overcome the redundancy problem, crosses were performed between the mutants in different EDF genes to construct double, triple and quadruple mutant combinations. Mutant genotypes were assayed by PCR. […] Importantly, the observed ethylene insensitivity was more dramatic in the quadruple mutant combinations that involved the strong edf1-1 allele (i.e. edf1-1 edf2-1 edf3-1 edf4-1 and edf1-1 edf2-2 edf3-1 edf4-1), compared to those that included the edf1-2 allele (edf1-2 edf2-1 edf3-1 edf4-1 and edf1-2 edf2-2 edf3-1 edf4-1). The weaker phenotype of the latter quadruple mutant combinations is consistent with the leaky expression of EDF1 in the edf1-2 mutant.
as §1, with “were measured. […] Fold inhibition” for “were measured. Each data point represents the average organ length of 50 or more seedlings plus/minus standard deviation. Fold inhibition”, “in ACC. Similar, yet less dramatic, differences were detected when the hypocotyls of the quadruple and wild-type seedlings were measured.” for “in ACC.”
Arabidopsis thaliana accession Columbia-0 was used for all overexpression studies. […] After 3–4 days in the light at 4 degrees C., the plates were wrapped in foil and kept in a 24 C incubator, after which the phenotypes of seedlings were analyzed. […]

NC1(C(=O)O)CC1 [ACC, 1-aminocyclopropane-1-carboxylic acid]
root length inhibition (fold; ratio of average organ length in air to that in ACC) (Columbia wild-type seedlings): 9.5 fold | root length inhibition (fold; ratio of average organ length in air to that in ACC) (WS wild-type seedlings): 12 fold | root length inhibition (fold; ratio of average organ length in air to that in ACC) (quadruple mutant edf1-1 edf2-1 edf3-1 edf4-1 seedlings): less than 7 fold

Source: patent US7169972B2, “Methods and compositions to modulate ethylene sensitivity” (The Salk Institute for Biological Studies, priority 2001, dated 2007)
